Patent publication US7074806B2, “Glucocorticoid mimetics, methods of making them, pharmaceutical compositions, and uses thereof” (Boehringer Ingelheim Pharmaceuticals, Inc., priority 2002, dated 2006)

Molecular target: T1, human glucocorticoid receptor (GR) complex (Homo sapiens, UniProt P04150)
T1 construct: made in house; host or cells: insect expression system (baculovirus lysate)
T1 sequence (P04150 1-777): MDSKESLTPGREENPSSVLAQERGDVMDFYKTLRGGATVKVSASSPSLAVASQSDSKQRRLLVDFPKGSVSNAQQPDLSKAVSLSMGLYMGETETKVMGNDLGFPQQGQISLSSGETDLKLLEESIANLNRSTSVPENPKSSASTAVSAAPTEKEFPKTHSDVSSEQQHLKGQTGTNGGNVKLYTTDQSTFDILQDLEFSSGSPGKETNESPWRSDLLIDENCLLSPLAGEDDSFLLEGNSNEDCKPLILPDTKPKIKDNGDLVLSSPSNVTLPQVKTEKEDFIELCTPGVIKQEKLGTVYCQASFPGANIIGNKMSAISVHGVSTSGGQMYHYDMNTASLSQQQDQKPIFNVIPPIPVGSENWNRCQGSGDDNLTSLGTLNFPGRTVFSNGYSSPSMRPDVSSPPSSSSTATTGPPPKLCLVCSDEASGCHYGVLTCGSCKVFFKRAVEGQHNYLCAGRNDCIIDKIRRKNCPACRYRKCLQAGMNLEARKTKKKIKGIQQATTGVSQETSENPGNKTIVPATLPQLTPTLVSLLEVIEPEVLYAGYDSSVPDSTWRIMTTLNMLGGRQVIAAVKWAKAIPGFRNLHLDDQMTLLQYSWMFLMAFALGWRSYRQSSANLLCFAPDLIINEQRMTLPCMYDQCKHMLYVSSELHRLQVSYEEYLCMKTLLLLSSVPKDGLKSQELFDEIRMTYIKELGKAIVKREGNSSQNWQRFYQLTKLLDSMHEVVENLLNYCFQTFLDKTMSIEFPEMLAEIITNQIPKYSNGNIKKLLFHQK
Test: Glucocorticoid Receptor Competitive Binding Assay (fluorescence polarization)
Conditions: competition with TAMRA-labeled dexamethasone for binding to GR; result in words only
Procedure: Compounds of the invention were evaluated for binding to the steroid receptor by a fluorescence polarization competitive binding assay. Detailed descriptions for preparation of recombinant glucocorticoid receptor (GR) complex used in the assay is described in Goldrick et al., U.S. provisional application No. 60/291,877, filed May 18, 2001 (corresponding to Goldrick et al., U.S. nonprovisional application No. 10/151,133, filed May 20, 2002, both incorporated herein by reference in their entirety. Preparation of the tetramethyl rhodamine (TAMRA)-labeled dexamethasone probe was accomplished using a standard literature procedure (M. Pons et al., J. Steroid Biochem., 1985, 22, pp. 267–273).
A. Glucocorticoid Receptor Competitive Binding Assay
Step 1. Characterization of the Fluorescent Probe
The wavelengths for maximum excitation and emission of the fluorescent probe should first be measured. An example of such a probe is rhodamine (TAMRA)-labeled dexamethasone.
The affinity of the probe for the steroid receptor was then determined in a titration experiment. The fluorescence polarization value of the probe in assay buffer was measured on an SLM-8100 fluorometer using the excitation and emission maximum values described above. Aliquots of expression vector lysate were added and fluorescence polarization was measured after each addition until no further change in polarization value was observed. Non-linear least squares regression analysis was used to calculate the dissociation constant of the probe from the polarization values obtained for lysate binding to the probe.
Step 2. Screening for Inhibitors of Probe Binding
This assay uses fluorescence polarization (FP) to quantitate the ability of test compounds to compete with tetramethyl rhodamine (TAMRA)-labeled dexamethasone for binding to a human glucocorticoid receptor (GR) complex prepared from an insect expression system. The assay buffer was: 10 mM TES, 50 mM KCl, 20 mM Na2MoO4.2H2O, 1.5 mM EDTA, 0.04% w/v CHAPS, 10% v/v glycerol, 1 mM dithiothreitol, pH 7.4. Test compounds were dissolved to 1 mM in neat DMSO and then further diluted to 10×assay concentration in assay buffer supplemented with 10% v/v DMSO. Test compounds were serially diluted at 10×assay concentrations in 10% DMSO-containing buffer in 96-well polypropylene plates. Binding reaction mixtures were prepared in 96-well black Dynex microtiter plates by sequential addition of the following assay components to each well: […] of 10×test compound solution, 85 μL of GR-containing baculovirus lysate diluted 1:170 in assay buffer, and 50 μL of 15 nM TAMRA-labeled dexamethasone. Positive controls were reaction mixtures containing no test compound; negative controls (blanks) were reaction mixtures containing 0.7 μM to 2 μM dexamethasone. The binding reactions were incubated for 1 hour at room temperature and then read for fluorescence polarization in the LJL Analyst set to 550 nm excitation and 580 nm emission, with the Rhodamine 561 dichroic mirror installed. IC50 values were determined by iterative non-linear curve fitting of the FP signal data to a 4-parameter logistic equation.

Compound | activity in the GR binding assay
CCCNC(Cc1ccnc2ccccc12)(CC(C)(C)c1cc(F)ccc1OC)C(F)(F)F (stereo not drawn) [Compound 26, [3-(5-Fluoro-2-methoxy-phenyl)-3-methyl-1-quinolin-4-ylmethyl-1-trifluoromethyl-butyl]-propyl-amine] | demonstrated activity
CCCCNC(Cc1ccnc2ccccc12)(CC(C)(C)c1cc(F)ccc1OC)C(F)(F)F (stereo not drawn) [Compound 28, Butyl-[3-(5-fluoro-2-methoxy-phenyl)-3-methyl-1-quinolin-4-ylmethyl-1-trifluoromethyl-butyl]-amine] | demonstrated activity
CNC(Cc1ccnc2ccccc12)(CC(C)(C)c1cc(F)ccc1OC)C(F)(F)F (stereo not drawn) [Compound 24, [3-(5-Fluoro-2-methoxy-phenyl)-3-methyl-1-quinolin-4-ylmethyl-1-trifluoromethyl-butyl]-methyl-amine] | demonstrated activity

Further lines, results first:

activity in the GR binding assay | Compound
demonstrated activity | COc1ccc(F)cc1C(C)(C)CC(N)(Cc1cc2ccccc2[nH]1)C(F)(F)F (stereo not drawn) [Compound 2, 3-(5-Fluoro-2-methoxy-phenyl)-1-(1H-indol-2-ylmethyl)-3-methyl-1-trifluoromethyl-butylamine]
demonstrated activity | COc1ccc(F)cc1C(C)(C)CC(N)(Cc1ccnc2ccccc12)C(F)(F)F (stereo not drawn) [Compound 12, 3-(5-Fluoro-2-methoxy-phenyl)-3-methyl-1-quinolin-4-ylmethyl-1-trifluoromethyl-butylamine]
demonstrated activity | COc1ccc(F)cc1C(C)(C)CC(Cc1ccnc2ccccc12)(NCC(C)C)C(F)(F)F (stereo not drawn) [Compound 27, [3-(5-Fluoro-2-methoxy-phenyl)-3-methyl-1-quinolin-4-ylmethyl-1-trifluoromethyl-butyl]-isobutyl-amine]
